Laboratory results reported in patent publication US10513521B2, “Compositions and methods for inhibiting BMP” (The Brigham and Women's Hospital, Inc., priority 2014, dated 2019).
Where a chain is given by its changes, count along the chain named. “And” between values parts separate entries of the source, which are not always exact repeats. Equal entries are not always repeated.

Experiments:
[1] = molecular target: T1, ALK2 (Mus musculus, UniProt P37172); assay: HTRF pSMAD1 cell-based ALK2 assay (C2C12 cells, BMP6 as agonist)
T1 construct: The C2C12 cell line was selected for the measurement of ALK2 activity using BMP6 as the agonist; host or cells: C2C12
T1 sequence (P37172 21-509): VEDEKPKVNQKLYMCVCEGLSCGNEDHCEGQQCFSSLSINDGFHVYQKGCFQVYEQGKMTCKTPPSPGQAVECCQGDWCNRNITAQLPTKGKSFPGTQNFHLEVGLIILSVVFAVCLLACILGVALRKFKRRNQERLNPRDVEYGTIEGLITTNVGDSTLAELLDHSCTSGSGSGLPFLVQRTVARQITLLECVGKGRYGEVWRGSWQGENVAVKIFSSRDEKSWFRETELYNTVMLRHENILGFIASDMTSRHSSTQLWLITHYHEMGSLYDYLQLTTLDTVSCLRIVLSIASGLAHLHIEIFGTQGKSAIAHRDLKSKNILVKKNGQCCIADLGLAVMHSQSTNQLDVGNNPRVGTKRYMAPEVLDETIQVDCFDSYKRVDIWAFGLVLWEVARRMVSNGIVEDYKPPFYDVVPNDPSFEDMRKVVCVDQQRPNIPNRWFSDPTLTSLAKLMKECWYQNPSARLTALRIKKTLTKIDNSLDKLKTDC
How it was run: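 Cells pre-starved, plated in 0.1% FBS medium for 4 h, compound added for 30 min, then stimulated 30 min with BMP9 (BAOEC) or BMP6 (C2C12). Phospho-SMAD1 measured by HTRF after overnight room-temperature detection incubation.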

[2] = molecular target: ALK1 (Homo sapiens, UniProt P37023); assay: TR-FRET enzymatic ALK kinase assay, ALK1
Chain of ALK1 (P37023 22-503): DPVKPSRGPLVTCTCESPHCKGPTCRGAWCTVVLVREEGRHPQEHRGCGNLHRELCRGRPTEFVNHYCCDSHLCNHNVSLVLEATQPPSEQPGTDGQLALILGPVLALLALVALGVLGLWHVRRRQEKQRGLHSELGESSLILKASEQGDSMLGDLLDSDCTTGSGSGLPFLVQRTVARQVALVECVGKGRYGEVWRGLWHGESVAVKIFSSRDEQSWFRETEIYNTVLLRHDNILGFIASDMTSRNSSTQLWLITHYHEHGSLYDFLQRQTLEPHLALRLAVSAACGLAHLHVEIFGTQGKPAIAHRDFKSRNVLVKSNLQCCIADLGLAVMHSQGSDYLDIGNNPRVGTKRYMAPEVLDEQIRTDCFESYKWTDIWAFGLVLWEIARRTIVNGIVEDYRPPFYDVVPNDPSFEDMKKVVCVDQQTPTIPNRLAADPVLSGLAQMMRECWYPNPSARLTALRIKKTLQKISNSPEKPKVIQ
Protocol: (§1) Briefly, the ALKs enzymatic assay was initiated by dispense 2.5 μl enzyme in 1× kinase reaction buffer. The assay plate was then added with compounds followed by incubation at room temperature for 10 minutes. Then 2.5 μl/well substrate was added.

[3] = molecular target: T2, ALK2 (Homo sapiens, UniProt Q04771); assay: TR-FRET enzymatic ALK kinase assay, ALK2
T2 sequence (Q04771 21-509): T1 sequence (P37172 21-509) with V1M, Q10P, I121L, E162D, S310P
Protocol: as §1

[4] = tested on: BMP4; assay: BMP4 HTRF assay; type: cell-based
[5] = molecular target: T1, ALK2; assay: In-cell Western ALK2 assay (C2C12 cells, BMP6 as agonist); type: cell-based; details: read-out: BMP6 ICW
Excerpt: 3. In-Cell Western ALK1 and ALK2 Assays in 384-Well Plate Format.
We also optimized cell-based In-cell Western assays for measurements of ALK1 and ALK2 activities that were used to determine compound activities in these two kinases. The cell lines and agonists used were same as described in above cell-based HTRF ALK1 and ALK2 assays. The initial cell plating and compound treatment were also same. The main difference is the detection of phosphorylation status of SMAD1. In t-cell Western assay, the cells were fixed and phosphorylation status of SMAD1 was detected by the ELISA instead of using the HTRF assay kit in above assay.
HyClone Fetal Bovine Serum was obtained from GE healthcare life sciences (Logan, Utah). BMP6 and BMP9 were purchased from R&D System (R&D). Anti-P-SMAD 1/5/8 rabbit mAb and anti-rabbit IgG, HRP-Linked antibody were purchased from Cell Signaling Technology (Danvers, Mass.). BioFX Chemiluminescent Ultra-Sensitive HRP Microwell Substrate ECL Reagent was obtained from SurModics (Edina, Minn.). The compound plates and the white solid MB assay plates were from Greiner Bio-one (Monroe, N.C.).
Similarly as described in above HTRF cell-based assay, this assay was performed in 384 well plate format. […] Pre-starved cells were then plated in 384 well plate in the starvation medium (containing in 0.1% FBS). After 4 hours, compound dilutions in DMSO were added to the assay plate and incubated for 30 minutes. The assay plate was then added with BMP6 for C2C12 cells or BMP9 for BAOEC cells and incubated for 30 minutes.
The cells were washed in the plate washer with PBS and blocked with 2% BSA in PBS for 1 h at room temperature on the rotator. After removing the blocking reagent, the cells were incubated with the anti-p-SMAD1 antibody in 2% BSA in PBS for overnight at 4° C. on rotator. The cells were washed with PBS in the plate washer and incubated with HRP conjugated second antibody in 2% BSA in PBS for 1 hour at room temperature. After a cell wash with PBS, ECL detection reagent was added and the plate was read in the luminesce mode in the ViewLux plate reader.

[6] = cell-based assay, BMP6, read-out: Cell IC50 BMP6
[7] = HTRF assay, BMP6 as agonist, C2C12 cells, read-out: BMP6 HTRF

| SMILES | IC50 [1, 6] [nM] | IC50 [2] [nM] | IC50 [3] [nM] | IC50 [1, 7] | IC50 [4] [nM] | IC50 [5] |
| --- | --- | --- | --- | --- | --- | --- |
| C[C@@H]1CNC[C@H](C)N1c1ccc(-c2cnc3c(-c4cccc5c(C(N)=O)cccc45)cnn3c2)cc1 [Compound 10, 5-(6-(4-((2S,6R)-2,6-dimethylpiperazin-1-yl)phenyl)pyrazolo[1,5-a]pyrimidin-3-yl)-1-naphthamide] | 4 | 5 | 8 | 19 nM | 140 |  |
| CC(O)c1cccc(-c2cnn3cc(-c4ccc(N5[C@H](C)CNC[C@@H]5C)cc4)cnc23)c1 (stereo partly drawn) [Compound 83, 1-(3-(6-(4-((2R,6S)-2,6-dimethylpiperazin-1-yl)phenyl)pyrazolo[5-a]pyrimidin-3-yl)phenyl)ethanol] | 35 | 57 | 12 |  |  |  |
| CC(C)(CN1CCCCC1)Oc1ccc(-c2cnc3c(-c4cccc5c(C(N)=O)cccc45)cnn3c2)cc1 [Compound 18, 5-(6-(4-((2-methyl-1-(piperidin-1-yl)propan-2-yl)oxy)phenyl)pyrazolo[1,5-a]pyrimidin-3-yl)-1-naphthamide] | 11 | 16 | 5 |  |  |  |
| N/C(=N/O)c1ccc(-c2cnn3cc(-c4ccc(N5CCNCC5)cc4)cnc23)c2ccccc12 [Compound 15, N′-hydroxy-4-(6-(4-(piperazin-1-yl)phenyl)pyrazolo[1,5-a]pyrimidin-3-yl)-1-naphthimidamide] | 170 | 1480 | 43 |  |  |  |
| C[S+](=O)([O-])c1cccc(-c2cnn3cc(-c4ccc(OC5(CN6CCCCC6)COC5)cc4)cnc23)c1 [Compound 93, 3-(3-(methylsulfonyl)phenyl)-6-(4-((3-(piperidin-1-ylmethyl)oxetan-3-yl)oxy)phenyl)pyrazolo[1,5-a]pyrimidine] | 11 | 100 | 29 | 230 nM | 100 |  |
| C[C@@H]1CNC[C@H](C)N1c1ccc(-c2cnc3c(-c4cccc(C(C)(C)O)c4)cnn3c2)cc1 [Compound 103, 2-(3-(6-(4-((2R,6S)-2,6-dimethylpiperazin-1-yl)phenyl)pyrazolo[1,5-a]pyrimidin-3-yl)phenyl)propan-2-ol] | 18 | 29 | 13 | 260 nM | 130 |  |
| NS(=O)(=O)c1ccc(-c2cnn3cc(-c4ccc(CCN5CCCCC5)cc4)cnc23)c2ccccc12 [Compound 54, 4-(6-(4-(2-(piperidin-1-yl)ethyl)phenyl)pyrazolo[1,5-a]pyrimidin-3-yl)naphthalene-1-sulfonamide] | 160 | 380 | 94 |  |  | 240 nM and 300 nM and 170 nM and 160 nM |
| C[S+](=O)([O-])c1cccc(-c2cnn3cc(-c4ccc(OC5(Cn6ccnc6)COC5)cc4)cnc23)c1 [Compound 105, 6-(4-((3-((1H-imidazol-1-yl)methyl)oxetan-3-yl)oxy)phenyl)-3-(3-(methylsulfonyl)phenyl)pyrazolo[1,5-a]pyrimidine] | < 1 | 150 | 95 | 350 nM | 9 |  |
| C[C@@H]1CNC[C@H](C)N1c1ccc(-c2cnc3c(-c4cccc(S(C)(=O)=O)c4)cnn3c2)cc1 [Compound 82, 6-(4-((2R,6S)-2,6-dimethylpiperazin-1-yl)phenyl)-3-(3-(methylsulfonyl)phenyl)pyrazolo[1,5-a]pyrimidine] | 1 | 30 | 12 | 308 nM | 180 |  |

Results, then the compound that gave them:

| IC50 [1, 6] [nM] | IC50 [2] [nM] | IC50 [3] [nM] | IC50 [1, 7] | IC50 [4] [nM] | IC50 [5] | SMILES |
| --- | --- | --- | --- | --- | --- | --- |
| 11 | 110 | 33 |  |  |  | CC1(c2ccc(-c3cnc4c(-c5cccc(S(C)(=O)=O)c5)cnn4c3)cc2)CCNCC1 [Compound 115, 6-(4-(4-methylpiperidin-4-yl)phenyl)-3-(3-(methylsulfonyl)phenyl)pyrazolo[1,5-a]pyrimidine] |
| 185 | 390 | 83 |  |  |  | CS(=O)(=O)c1cccc(-c2cnn3cc(-c4ccc(OCCN5CCCC5)cc4)cnc23)c1 [Compound 108, 3-(3-(methylsulfonyl)phenyl)-6-(4-(2-(pyrrolidin-1-yl)ethoxy)phenyl)pyrazolo[1,5-a]pyrimidine] |
| 66 | 200 | 49 |  |  |  | C[C@@H]1CNC[C@H](C)N1c1ccc(-c2cnc3c(-c4cccc(C[S+](C)(=O)[O-])c4)cnn3c2)cc1 [Compound 117, 6-(4-((2R,6S)-2,6-dimethylpiperazin-1-yl)phenyl)-3-(3-((methylsulfonyl)methyl)phenyl)pyrazolo[1,5-a]pyrimidine] |
| 2 | 390 | 95 |  |  | 190 nM and 300 nM | C[S+](=O)([O-])c1cccc(-c2cnn3cc(-c4ccc(OCCN5CCCCC5)cc4)cnc23)c1 [Compound 109] |
|  | 330 | 47 | 230 nM |  | 57 nM and 56 nM | CC(O)c1cccc(-c2cnn3cc(-c4ccc(OC5(CN6CCCCC6)CC5)cc4)cnc23)c1 (stereo not drawn) [Compound 143, 1-(3-(6-(4-(1-(piperidin-1-ylmethyl)cyclopropoxy)phenyl)pyrazolo[1,5-a]pyrimidin-3-yl)phenyl)ethanol] |
| < 1 | 67 | 32 |  |  | 110 nM and 88 nM | CC(C)S(=O)(=O)c1cccc(-c2cnn3cc(-c4ccc(N5[C@H](C)CNC[C@@H]5C)cc4)cnc23)c1 [Compound 114, 6-(4-((2R,6S)-2,6-dimethylpiperazin-1-yl)phenyl)-3-(3-(isopropylsulfonyl)phenyl)pyrazolo[1,5-a]pyrimidine] |
| 4.6 | 500 | 94 |  |  | 360 nM and 220 nM | CC(C)S(=O)(=O)c1cccc(-c2cnn3cc(-c4ccc(CCN5CCCCC5)cc4)cnc23)c1 [Compound 113, 3-(3-(isopropylsulfonyl)phenyl)-6-(4-(2-(piperidin-1-yl)ethyl)phenyl)pyrazolo[1,5-a]pyrimidine] |
| < 1 | 120 | 17 |  |  | 180 nM and 170 nM | C[C@@H]1CNC[C@H](C)N1c1ccc(-c2cnc3c(-c4cccc([S+](=O)([O-])C5CC5)c4)cnn3c2)cc1 [Compound 111, 3-(3-(cyclopropylsulfonyl)phenyl)-6-(4-((2R,6S)-2,6-dimethylpiperazin-1-yl)phenyl)pyrazolo[1,5-a]pyrimidine] |
| 2.4 | 210 | 56 | 150 nM and 130 nM |  | 300 nM and 100 nM | CS(=O)(=O)c1cccc(-c2cnn3cc(-c4ccc(CN5CCCCC5)cc4)cnc23)c1 [Compound 123, 3-(3-(methylsulfonyl)phenyl)-6-(4-(piperidin-1-ylmethyl)phenyl)pyrazolo[1,5-a]pyrimidine] |
